# Patent US20240254089A1, “MODULATORS OF MAS-RELATED G-PROTEIN RECEPTOR X4 AND RELATED PRODUCTS AND METHODS” (ESCIENT PHARMACEUTICALS, INC., priority 2020, published 2024)
# Target: T1, human MRGPR X4 (Homo sapiens, UniProt Q96LA9)
# T1 construct: expressed in transfected cells
# Experiment: MRGPR X4 antagonist activity, IP-One Gq HTRF assay in stably transfected HEK cells
# Type: cell-based
# Settings: not given
# Method in brief: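 IC50 comes from HTRF IP-1 accumulation in stably transfected HEK cells expressing human MRGPR X4. Compounds (10 uM top, 1:3 serial, 10 points) were co-incubated with 10 μM bilirubin, 20 μM deoxycholic acid or 100 μM conjugated bilirubin in LiCl-containing buffer, pH 8, for 1 h at 37 °C plus 30 min at room temperature.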
# T1 sequence (Q96LA9 whole entry): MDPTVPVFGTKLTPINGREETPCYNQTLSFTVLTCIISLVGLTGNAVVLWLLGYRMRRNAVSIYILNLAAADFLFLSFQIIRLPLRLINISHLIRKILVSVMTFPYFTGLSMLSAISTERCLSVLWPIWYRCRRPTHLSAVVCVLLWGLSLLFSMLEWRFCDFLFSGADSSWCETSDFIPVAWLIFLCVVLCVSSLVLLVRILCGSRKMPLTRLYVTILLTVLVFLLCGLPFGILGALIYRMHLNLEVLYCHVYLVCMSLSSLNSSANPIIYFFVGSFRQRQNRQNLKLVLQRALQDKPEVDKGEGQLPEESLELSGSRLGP
row,SMILES,IC50 [µM]
1,O=C(NCCc1noc2ccccc12)c1nn(Cc2ccc(Cl)cc2)c2ccccc12 [Compound 45],0.1 to 0.5
2,"Cc1ccc(Cn2nc(C(=O)NCCc3c[nH]c4ccccc34)c3ccccc32)cc1 [Compound 135, N-(2-(1H-indol-3-yl)ethyl)-1-(4-methylbenzyl)-1H-indazole-3-carboxamide]",1 to 2.5
3,O=C(NCCn1cncn1)c1nn(Cc2ccc(Cl)cc2)c2ccccc12 [Compound 398],> 2.5
4,O=C(NCCc1nnc2ccccn12)c1nn(Cc2ccc(Cl)c(Cl)c2)c2ccc(F)cc12 [Compound 571],< 0.1
5,Cc1cccc2[nH]c(CCNC(=O)c3nn(Cc4ccc(Cl)cc4)c4ccccc34)nc12 [Compound 561],< 0.1
6,CC(C)(O)c1cn(CCNC(=O)c2nn(Cc3ccc(Cl)cc3)c3ccccc23)nn1 [Compound 140],0.501 to 1
7,O=C(NCc1cccnc1N1CCOCC1)c1nn(Cc2ccc(Cl)cc2)c2ccccc12 [Compound 395],> 2.5
8,CCc1nc(CCNC(=O)c2nn(Cc3ccc(Cl)cc3)c3ccccc23)sc1C [Compound 79],0.501 to 1
9,O=C(NCC(O)c1cccnc1)c1cn(Cc2ccc(Cl)cc2)c2ccccc12 (stereo not shown) [Compound 150],0.1 to 0.5
10,COc1ccccc1CCNC(=O)c1cn(Cc2ccc(Cl)cc2)c2ccccc12 [Compound 177],0.1 to 0.5
11,Cc1ccc(CCNC(=O)c2cn(Cc3ccc(Cl)cc3)c3ccccc23)cc1 [Compound 175],0.1 to 0.5
12,O=C(NCCc1nnc2ccccn12)c1nn(Cc2ccc(Cl)cc2F)c2ccccc12 [Compound 527],< 0.1
13,Cc1ccc(Cn2cc(C(=O)NCCc3c[nH]c4ccccc34)c3ccccc32)cc1 [Compound 169],0.1 to 0.5
14,Cc1cc(C)nc(CCNC(=O)c2nn(Cc3ccc(Cl)cc3)c3ccccc23)n1 [Compound 119],1 to 2.5
15,COc1cccc(Cn2nc(C(=O)NCCc3nnc4ccccn34)c3ccccc32)n1 [Compound 434],1 to 2.5
16,Cc1ccc(Cn2cc(C(=O)NCCc3nc4c(s3)CCC4)c3ccccc32)cc1 [Compound 174],0.1 to 0.5
17,CC(C)(CNC(=O)c1cn(Cc2ccc(Cl)cc2)c2ccccc12)c1cccnc1 [Compound 233],> 2.5
18,O=C(NCCc1nnc2ccccn12)c1nn(Cc2ccc3ccccc3c2)c2ccccc12 [Compound 432],< 0.1
19,N#Cc1ccccc1Cn1nc(C(=O)NCCc2cccnc2)c2ccccc21 [Compound 47],0.1 to 0.5
20,O=C(NCc1nc2ccccc2[nH]1)c1nn(Cc2ccc(Cl)cc2)c2ccccc12 [Compound 352],0.1 to 0.5
21,O=C(NCCc1ccc(O)cc1)c1nn(Cc2ccc(Cl)cc2)c2ccccc12 [Compound 40],0.1 to 0.5
22,O=C(NCCc1nnc2ccccn12)c1nn(Cc2ccc(Cl)cc2)c2c(F)cccc12 [Compound 540],< 0.1

row,SMILES,IC50 [µM]
1,Cc1ccc2nc(CCNC(=O)c3nn(Cc4ccc(Cl)cc4)c4ccccc34)[nH]c2c1 [Compound 560],0.1 to 0.5
2,Cc1ccc(Cn2nc(C(=O)NCCc3nncn3C)c3ccccc32)cc1 [Compound 107],1 to 2.5
3,COc1ccc(CCNC(=O)c2nn(Cc3ccc(Cl)cc3)c3ccccc23)cc1OC [Compound 343],0.501 to 1
4,Cc1ccc(Cn2nc(C(=O)NCCc3cnccn3)c3ccccc32)cc1 [Compound 97],1 to 2.5
5,Cc1ccc(Cn2nc(C(=O)NCCc3cn4c(n3)SCC4)c3ccccc32)cc1 [Compound 41],0.1 to 0.5
6,Cc1cccc(C(F)(F)F)c1Cn1nc(C(=O)NCCc2nnc3ccccn23)c2ccccc21 [Compound 457],> 2.5
7,O=C(NCCc1cccnc1)c1nn(Cc2ccc(Cl)cc2Cl)c2ccccc12 [Compound 16],< 0.1
8,"O=C(NCCn1cc(-c2cccnc2)nn1)c1nn(Cc2ccc(Cl)cc2)c2ccccc12 [Compound 144, 1-(4-chlorobenzyl)-N-(2-(4-(pyridin-3-yl)-1H-1,2,3-triazol-1-yl)ethyl)-1H-indazole-3-carboxamide]",0.1 to 0.5
9,O=C(NCCc1nnc2ccccn12)c1nn(Cc2cccc3c2OCO3)c2ccccc12 [Compound 433],0.501 to 1
10,O=C(NCCc1nc2c(s1)CCCC2)c1nn(Cc2ccc(OC(F)F)cc2)c2ccccc12 [Compound 82],0.501 to 1
11,Cc1ccc(Cn2nc(C(=O)NCCc3cnoc3)c3ccccc32)cc1 [Compound 128],> 2.5
12,Cc1ccc(Cn2nc(C(=O)NCCc3nc4ccccc4o3)c3ccccc32)cc1 [Compound 103],1 to 2.5
13,Cc1cc(Cl)ccc1Cn1nc(C(=O)NCCc2nc3c(s2)CCCC3)c2ccccc21 [Compound 98],1 to 2.5
14,O=C(NCCc1ccccn1)c1cn(Cc2ccccc2)c2ccccc12 [Compound 234],> 2.5
15,Cc1ccc(Cn2nc(C(=O)NCCc3cc4ccccc4s3)c3ccccc32)cc1 [Compound 84],0.501 to 1
16,O=C(NCCc1nnc2ccccn12)c1nn(Cc2ccc(Cl)cc2F)c2ccc(F)cc12 [Compound 572],< 0.1
17,O=C(NCCc1cccnc1)c1nn(Cc2ccc(OC(F)F)cc2)c2ccccc12 [Compound 42],0.1 to 0.5
18,O=C(NCCc1cccnc1)c1cn(Cc2cccc(Cl)c2)c2ccccc12 [Compound 195],0.501 to 1
19,Cc1cccc(Cn2nc(C(=O)NCCc3cccnc3)c3ccccc32)c1 [Compound 115],1 to 2.5
20,O=C(NCCc1nnc2ccccn12)c1nn(Cc2nc3ccccc3[nH]2)c2ccccc12 [Compound 521],1 to 2.5
21,O=C(NCCc1nnc2ccccn12)c1nn(Cc2cccc(C(F)(F)F)c2F)c2ccccc12 [Compound 459],0.1 to 0.5
22,O=C(NCCc1nnc2ccccn12)c1nn(Cc2cccc3c2CCC3)c2ccccc12 [Compound 545],0.1 to 0.5

row,SMILES,IC50 [µM]
1,Cn1cc2ccc(CNC(=O)c3nn(Cc4ccc(Cl)cc4)c4ccccc34)cc2n1 [Compound 391],1 to 2.5
2,O=C(NCCn1cc(-c2ccccc2)nn1)c1nn(Cc2ccc(Cl)cc2)c2ccccc12 [Compound 141],0.501 to 1
3,COc1cc(Cl)ccc1Cn1nc(C(=O)NCCc2nc3c(s2)CCCC3)c2ccccc21 [Compound 123],> 2.5
4,O=C(NCCc1nnc2ccccn12)c1nn(Cc2ccc3ccccc3n2)c2ccccc12 [Compound 412],0.1 to 0.5
5,O=C(NCCc1ccc(=O)[nH]c1)c1cn(Cc2ccc(Cl)cc2)c2ccccc12 [Compound 220],1 to 2.5
6,O=C(NCCc1nnc2n1CCCCC2)c1nn(Cc2ccc(Cl)cc2)c2ccccc12 [Compound 6],< 0.1
7,O=C(NCCc1nnc2ccccn12)c1nn(CCc2ccc(Cl)c(Cl)c2)c2ccccc12 [Compound 505],1 to 2.5
8,Cc1ccc(Cn2nc(C(=O)NCCc3cccnc3)c3c(C#N)cccc32)cc1 [Compound 67],0.1 to 0.5
9,O=C(NCCc1cccc(F)c1)c1cn(Cc2cccc(F)c2)c2ccccc12 [Compound 199],0.501 to 1
10,O=C(NCCc1ccon1)c1nn(Cc2ccc(Cl)cc2)c2ccccc12 [Compound 100],1 to 2.5
11,CC(=O)Nc1ccc(CNC(=O)c2nn(Cc3ccc(Cl)cc3)c3ccccc23)cc1 [Compound 374],> 2.5
12,"COc1cc(Cn2nc(C(=O)NCCc3cccnc3)c3ccccc32)ccc1Cl [Compound 43, 1-(4-chloro-3-methoxybenzyl)-N-(2-(pyridin-3-yl)ethyl)-1H-indazole-3-carboxamide]",0.1 to 0.5
13,COc1ccc(CCNC(=O)c2cn(Cc3ccc(Cl)cc3)c3ccccc23)cc1 [Compound 182],0.1 to 0.5
14,O=C(NCCc1nnc2ccccn12)c1nn(Cc2cc3c(cc2Cl)OCO3)c2ccccc12 [Compound 411],< 0.1
15,Cc1ccccc1S(=O)(=O)NC(=O)c1nn(Cc2ccc(OC(F)F)cc2)c2ccccc12 [Compound 258],0.1 to 0.5
16,O=C(NCCc1nnc2ccccn12)c1nn(Cc2cc3ccccc3s2)c2ccccc12 [Compound 558],< 0.1
17,CC(=O)c1ccc(Cn2nc(C(=O)NCCc3nnc4ccccn34)c3ccccc32)cc1 [Compound 413],0.1 to 0.5
18,O=C(NCCOc1cccnc1)c1nn(Cc2ccc(Cl)cc2)c2ccccc12 [Compound 336],0.1 to 0.5
19,O=C(O)c1nn(Cc2ccc(Cl)cc2)c2cccc(F)c12 [Compound 327],> 2.5
20,O=C(NCCc1nnc2n1CCCCC2)c1nn(Cc2ccc(OC(F)F)cc2)c2ccccc12 [Compound 24],< 0.1
21,CN(C)c1cccc(Cn2nc(C(=O)NCCc3nnc4ccccn34)c3ccccc32)c1 [Compound 451],0.1 to 0.5

# Same assay, conditions: versus 20 μM deoxycholic acid agonist; HEK cells expressing human MRGPR X4; read-out: MRGPRX4 Antagonist Activity
row,SMILES,IC50 [µM]
1,CC(C)c1ccccc1S(=O)(=O)NC(=O)c1nn(Cc2ccc(Cl)cc2)c2ccccc12 [Compound 302],> 2.5
2,"Cc1ccccc1S(=O)(=O)NC(=O)c1cn(Cc2ccc(OC(F)F)cc2)c2ccccc12 [Compound 312, 1-(4-(difluoromethoxy)benzyl)-N-(o-tolylsulfonyl)-1H-indole-3-carboxamide]",1 to 2.5
3,O=C(NS(=O)(=O)c1cccc(C(F)(F)F)c1)c1nn(Cc2ccc(OC(F)F)cc2)c2ccccc12 [Compound 265],0.501 to 1
4,O=C(NS(=O)(=O)c1cccnc1)c1nn(Cc2ccc(Cl)cc2)c2ccccc12 [Compound 304],> 2.5
5,O=C(Cn1nc(C(=O)NCCc2nnc3ccccn23)c2ccccc21)c1ccc(Cl)c(Cl)c1 [Compound 482],< 0.1
6,COc1ccc(C)c(S(=O)(=O)NC(=O)c2nn(Cc3cccc(F)c3)c3ccccc23)c1 [Compound 257],> 2.5
7,Cc1ccc(NC(=O)CS(=O)(=O)c2cn(Cc3ccc(Cl)cc3)c3ccccc23)cc1 [Compound 247],1 to 2.5
8,COc1ccc(S(=O)(=O)NC(=O)c2nn(Cc3ccc(OC(F)F)cc3)c3ccccc23)cc1C [Compound 275],1 to 2.5
9,COc1cccc(NC(=O)CS(=O)(=O)c2cn(Cc3ccc(Cl)cc3)c3ccccc23)c1 [Compound 238],0.1 to 0.5
10,"O=C(O)c1nn(Cc2ccc(Cl)cc2Cl)c2ccccc12 [Compound 316, 1-(2,4-dichlorobenzyl)-1H-indazole-3-carboxylic acid]",1 to 2.5
11,O=C(CS(=O)(=O)c1cn(Cc2ccc(Cl)cc2)c2ccccc12)Nc1ccccn1 [Compound 241],0.1 to 0.5
